Measured values as given in patent publication US20100016211A1, “Treatment of Melanoma With Alpha Thymosin Peptides” (SciClone Pharmaceuticals, Inc., priority 2007, published 2010).
Ends that are not written are not given here.

Experiments:
[1] = test system: stage IV metastatic melanoma; test: Phase 2 multi-center open-label study: tumor response (CR, PR, RR); type: in vivo, human; conditions: regimen with TA1 but without IFN alpha vs both IFN alpha and TA1
From the text: (§1) This phase 2 multi-center, open-label study enrolled 488 patients with stage IV metastatic melanoma at 64 European clinical sites. The trial was designed to evaluate different dose levels of Thymosin alpha 1 (TA1). This study was in combination with DTIC chemotherapy, with and without low-dose interferon alpha, as a first-line treatment for malignant melanoma. Most patients enrolled in the trial had liver and other metastases and the remaining patients had lung metastases and skin or lymph node metastases.
(§2) A total of 488 patients (pts) (63% M1; 24% M1b; 13% M1a) were randomised into the study from 64 European sites. Demographic and baseline characteristics are shown in table 1 wherein DIT=DTIC/IFN alpha,/TA1, DT=DTIC/TA1, T=TA1, DI=DTIC/IFN alpha and ECOG PS is a patient's health performance status (PS) according to the Eastern Cooperative Oncology Group (ECOG).

[2] = test system: stage IV metastatic melanoma; test: Phase 2 multi-center open-label study: overall survival (OS); type: in vivo, human; conditions: regimen with TA1 but without IFN alpha vs both IFN alpha and TA1
From the text: as §1, §2

[3] = test system: stage IV metastatic melanoma; test: Phase 2 multi-center open-label study: progression free survival (PFS); type: in vivo, human; conditions: regimen with TA1 but without IFN alpha vs both IFN alpha and TA1
From the text: as §1, §2

[4] = Phase 2 multi-center open-label study: adverse events and tolerability; design: species or system human; conditions: in vivo
From the text: as §1, §2

Melan-A/MART-1 = test: Melanoma antigen expression in B-16 cells by confocal microscopy; type: cell-based, mouse
From the text: (§3) Thymosin alpha 1 was able to up-regulate melanoma-specific antigens melan-A and MART-1 on the cell surface of mouse B-16 melanoma cells.

Gp100 = test: as above; type: cell-based; conditions: B-16 mouse melanoma cells, 24 h treatment, 50 μg/ml; control: +
From the text: as §3

Substance: thymosin alpha 1 (Ac-SDAAVDTSSEITTKDLKEKKEVVEEAEN; UniProt P06454 2-29, looked up)
- Overall tumor response (in words) [1]: higher overall tumor response
- Median survival rate (in words) [2]: higher median survival rate
- Progression-free survival (in words) [3]: higher progression-free survival
- Serious adverse events attributed to the drug (in words) [4]: no serious adverse events attributed to the drug
- Melan-A/MART-1 expression (Melan-A/MART-1; B-16 mouse melanoma cells, 24 h treatment, 50 μg/ml, control: +): ++ ↑
- Melanoma-specific antigens melan-A and MART-1 on the cell surface (in words) (Melan-A/MART-1; mouse B-16 melanoma cells): up-regulate
- Gp100 expression (Gp100): ± ↓
